Tests used:
[1] = tested on: KU1919-GemCis and KU1919 parental cells; test: Drug dose response with NPEPPS knockdown or overexpression; format: cell-based, human
NPEPPS mRNA = test: Cisplatin induced NPEPPS mRNA expression (RT-qPCR); format: cell-based, human
Method: Cisplatin induced NPEPPS mRNA expression. Total RNA was isolated from cells using Trizol (ThermoFisher) and/or phenol-chloroform based extraction methods. Residual DNA was digested with DNAse I (Life technologies). cDNA synthesis was performed using Superscript II Reverse Transcriptase kit (Life technologies) using random primers. RT-qPCR reactions were performed on a CFX Connect Real-Time PCR Detection System thermocycler (Bio-Rad) using TaqMan gene expression assays for NPEPPS and HMBS as a housekeeping gene (ThermoFisher) in combination with SensiFAST Probe No-ROX Kit (Bioline, Toronto, Canada). Expression data was calculated using 2^−ΔΔCt. All cell line experiments were performed in triplicate from independently grown cells. Comparisons at the indicated dose of cisplatin were made to the control treatment (0 μM cisplatin) using a t-test.

[2] = cited from earlier work
TCCSUP cells = test: Intracellular cisplatin measurements using CyTOF in TCCSUP cells; format: cell-based, human
Method: To validate the role of LRRC8D in cisplatin import, intracellular cisplatin was measured in the TCCSUP cells. […] In contrast to the KU1919, 5637, and T24 cells (FIGS. 12C-12E), NPEPPS knockdown had very little effect on the GemCis-resistant cells (median Pt 195=28) (FIGS. 12I-12J) given that the TCCSUP-GemCis cells have a focal deletion of LRRC8D (FIGS. 9A-9B). However, when LRRC8D was overexpressed, cisplatin import was restored to the levels of the parental cell line (FIG. 12K).
shRNA-mediated knockdown experiments. Lentiviral production and transduction were carried out as follows. In brief, plasmids from the RNAi Consortium (TRC) collection (TRC construct numbers TRCN0000073838, TRCN0000073839 and TRCN0000073840) were used for targeting NPEPPS were selected based on predicted knockdown efficiency; non-targeting controls used were SHC002 and SHC016. 2 μg of target shRNA construct and 2 μg of 3:1 ratio of psPAX2 (Addgene) and pMD2.G (Addgene) were transfected into HEK293FT cells using 2 μg of Polyethylenimine (Polysciences). Lentiviral particles containing media was filtered using 0.45 μm cellulose acetate syringe filter and used for transduction. Puromycin selection was performed at doses used for CRISPR library screening or in some cases, cells were re-selected with higher doses of puromycin (10 μg/mL), in order to ensure complete elimination of non-transduced cells. Selected cells were frozen at early passage and early passage cells were used for all experiments.
Intracellular cisplatin measurements using CyTOF. Cell lines were cultured for several passages in IMDM+10% FBS. […] After dissociation, cells were counted by Trypan blue staining and then placed in separate tubes at 3×10^5 cells. […] Relative cisplatin intensity (defined by ^195Platinum isotopic mass intensity) was analyzed among nucleated ^191Iridium+^193Iridium+events defined by Boolean gating within FlowJo 10.7.1.

[3] = tested on: bladder tumor-derived organoids; test: Tumor-derived organoid drug screening (alamarBlue viability, reseeding); format: cell-based, human
Method: Three independent organoid models derived from patients that failed between 4 to 6 cycles of neoadjuvant gemcitabine plus cisplatin chemotherapy (FIG. 10A). The organoids mimicked the morphological and genomic characteristics of the tumor from which they were derived (FIG. 10B). These organoids were treated with increasing doses of cisplatin and 20 μM of tosedostat.
Tumor-derived Organoids. Culture of the organoids. Human bladder tissue was obtained from the Erasmus MC Bladder Cancer Center, Rotterdam, the Netherlands. Bladder tumor-derived organoids from biopsies obtained through TURBT or cystectomy. Briefly, bladder tissues were washed with Advanced DMEM/F12 (Gibco) supplemented with 10 mM HEPES (Gibco), 1% GlutaMax (Gibco) and 100 μg/ml primocin (InvivoGen), henceforth Ad+++. Tissue was minced and incubated at 37° C. with the digestion solution (collagenase 2.5 mg/ml in EBSS) and isolated cells were passed through […] strainer (Falcon), washed with Ad+++ and seeded in 50 μl drops of BME (R&D system) containing 10000-15000 cells in 24 well suspension plates (Greiner). Bladder tumor organoids were cultured in a culture medium containing Ad+++ supplemented with 1×B-27 (Gibco), 1.25 mM N-acetylcysteine (Sigma), 10 mM nicotinamide, 20 μM TGFβ receptor inhibitor A83-01, 100 ng/ml recombinant human FGF10 (Peprotech), 25 ng/ml recombinant human FGF7 (Peprotech), 12.5 ng/ml recombinant human FGF2 (Peprotech), 10 μM Y27632 Rho Kinase (ROCK) Inhibitor (Sigma) and conditioned media for recombinant Rspondin (2.5% v/v), and Wnt3A (2.5% v/v). The medium was changed every three days. Organoids were passaged at a 1:3 to 1:6 ratio every 7 days using cell dissociation solution-non enzymatic (Sigma) and plated in fresh BME matrix droplets.
Drug screening. Organoids were collected 7 days after passaging, passed through a […] strainer and 1000 organoids were seeded per well of a 48-well plate in BME matrix droplets. After 24 hours cisplatin (Sigma) resuspended in PBS was added at different concentrations (2, 10, 25, and 50 μM) with or without tosedostat (20 μM) (Tocris) resuspended in DMSO. All wells were adjusted to contain less than 0.7% DMSO. Organoids were cultured for the first 6 days in the presence of drugs followed by drug withdrawal, where organoids were grown in organoid culture media for 10 days. The entire content of the wells in different treatment groups was collected, washed and reseeded after disaggregation in fresh BME, and cultured for 6 days. Cell viability was assayed using alamarBlue (Invitrogen) according to the manufacturer's instructions after 6 days of drug incubation, 10 days of drug withdrawal, and 6 days post reseeding. Viability data was normalized using organoid wells treated with vehicle control.

SMILES: N.N.[Cl][Pt][Cl] [cisplatin]
- effect of NPEPPS knockdown on drug response ([1]; KU1919-GemCis cells, stable NPEPPS shRNA knockdown): preferentially enhanced response
- effect of NPEPPS overexpression on drug response ([1]; KU1919 parental lines overexpressing NPEPPS): increased treatment resistance
- NPEPPS mRNA (NPEPPS mRNA; KU1919-Par and KU1919-GemCis cells after 24 hours of cisplatin treatment): increased
- NPEPPS induction (NPEPPS mRNA; patient-derived organoids treated with cisplatin): induced NPEPPS in a dose dependent manner
- maximum concentration of cisplatin in patients [2]: 14 µM
- intracellular cisplatin, median Pt 195 (TCCSUP cells; TCCSUP parental cells): 189
- intracellular cisplatin, median Pt 195 (TCCSUP cells; TCCSUP-GemCis cells): 22
- intracellular cisplatin, median Pt 195 (TCCSUP cells; TCCSUP-GemCis cells, NPEPPS knockdown): 28
- organoid growth after reseeding in new growth conditions ([3]; 2 μM cisplatin alone): able to re-grow
- organoid killing ([3]; cisplatin alone at 25 μM): all organoids were killed
